Test results published in article PMC4633953, “FR171456 is a specific inhibitor of mammalian NSDHL and yeast Erg26p” (Nature Communications, 2015).
Where “and” joins values, the source holds several entries; their conditions need not be identical. Equal entries are not always repeated.

How the values were obtained:
Aspergillus favus NF4902 = assay: Antifungal MIC; type: cell-based
[1] = tested on: replicon-carrying Huh-7 cells; assay: Proliferation/viability of replicon-carrying Huh-7 cells (resazurin); type: cell-based, human; conditions: replicon assay conditions
Method: (§1) The inhibitor screening was performed in 1,536-well plate with 3,000 cells per well, using Huh-7 cells containing the HCV replicon subgenomic genotype 1b, maintained in DMEM, supplemented with (1 × ) L-glutamine (L-Glue), 1 × non-essential amino acids, 10% heat-inactivated fetal bovine serum (FBS), and 1 mg ml^–1 G418, and incubated with compounds for 48 h at 37 °C, 5% CO2. […] Following compound incubation, Resazurin solution (10 × : 1 μg μl^–1 Resazurin in DMSO) diluted to 1 × was then added to a volume of 0.5 μl to each well and incubated for further 3 h at 37 °C, 5% CO2 to monitor cell viability. Subsequently 15 μl, diluted 1:2 from stock of Steady- Glo (Promega) was added and the luminescence from the HCV replicon was monitored using the Envision (Envision US Lum, using 0.1 s per well measurement time).

Erg26p [2] = target: T1, Erg26p (Saccharomyces cerevisiae, UniProt P53199); assay: biochemical
T1 sequence (P53199 1-349): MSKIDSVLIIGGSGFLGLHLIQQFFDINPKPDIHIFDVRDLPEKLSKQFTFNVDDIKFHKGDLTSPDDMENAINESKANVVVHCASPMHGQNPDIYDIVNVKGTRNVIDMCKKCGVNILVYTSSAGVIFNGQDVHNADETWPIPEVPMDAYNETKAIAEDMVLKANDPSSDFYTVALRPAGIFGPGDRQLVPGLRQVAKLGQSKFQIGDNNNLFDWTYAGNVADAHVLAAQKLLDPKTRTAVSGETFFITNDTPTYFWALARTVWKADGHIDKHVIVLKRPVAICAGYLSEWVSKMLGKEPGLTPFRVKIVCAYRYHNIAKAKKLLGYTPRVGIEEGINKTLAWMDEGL
Method: (§4) To test this hypothesis an in vitro microsomal Erg26p activity assay[30] was used. Erg26p activity was directly assessed in the presence of increasing concentrations of FR171456 (10 nM–0.1 mM) in the presence of 150 μM carboxysterol substrate (Fig. 1c) and the cofactor NAD^+ (0.5 mM) followed by GC-MS detection of the product 4α-methyl-cholest-8,24-dien-3-one.
(§5) Wild-type yeast (FL200) microsomes were prepared as follows. Yeast cells were disrupted by glass bead homogenization (0.45-mm diameter) in 100 mM phosphate buffer (pH 7.5) containing 1.5 mM reduced glutathione and 30 mM nicotinamide for 8 min at 0 °C[44]. The cell extract was obtained by centrifugation at 10,000 × g for 20 min. Microsomes were then isolated by centrifuging the cell extract supernatant at 100,000 × g for 90 min. The resulting microsomal pellet was resuspended in 100 mM phosphate buffer (pH 7.5) containing 3 mM reduced glutathione and 20% glycerol (v/v) using an Elvehjem–Potter homogenizer. Yeast microsomes (1.2 mg of protein) were incubated in the presence of 4α-carboxy-4β-methyl-cholest-8,24-dien-3β-ol (50–300 mM) and NAD^+ (0.5 mM) for 35–45 min at 30 °C. After addition of coprostanone (2–6 μg) as internal standard, the reactions were extracted as described previously[12]. The extract was analysed by TLC on silica gel and eluted twice with CH2Cl2. The fraction migrating between a standard of 4-desmethyl-sterone (RF= 0.50) and 4,4-dimethyl-sterone (RF=0.70) was eluted and analysed using a GC-MS spectrometer (Agilent 5973 N).
(§6) In the case of inhibition assays, microsomes were incubated for 35–45 min at 30 °C in the presence of 4α-carboxy-4β-methyl-cholest-8,24-dien-3β-ol (50–300 mM) and a range of inhibitor concentration (0.01–100 μM) from which a dose–response curve was obtained allowing the corresponding I50 values to be determined.
(§7) The GC-MS spectrometer (Agilent 5973 N) was equipped with an ‘on column' injector and a capillary column (30 × 0.25 mm) coated with DB5 (H2 flow rate of 2 ml min^−1). The temperature program included a 30 °C min^−1 increase from 60 °C to 240 °C, and followed by a 2 °C/min increase from 240 °C to 280 °C. The areas of the GC peaks of coprostanone (tR=1.000) and of the produced 4α-methyl-cholest-8,24-dien-3-one (tR=1.139), corrected from endogenous component of the same tR (1.139) determined in the blank (boiled microsomes), allowed the rate of transformation of 4α-carboxy-4β-methyl-cholest-8,24-dien-3β-ol to be measured. Under these conditions, the estimated limit of detection of the 3βHSD/D activity was 0.1 nmol h^−1 mg^−1.

Candida albicans NF2103 = assay: Antifungal MIC; type: cell-based
Erg26p [3] = target: T1, Erg26p; assay: In vitro microsomal Erg26p activity assay (GC-MS)
Method: as §4, §5, §6, §7

Erg26p Arg315His = assay: In vitro microsomal Erg26p activity assay, mutant; type: biochemical, S. cerevisiae; conditions: microsome extracts
Source text: (§2) Thus many of the FR171456 resistance mutations were mapped close to the NAD^+ or the substrate-binding site. The presence of three active conservative mutations Arg39Lys, […], and Arg315His in proximity to NAD^+ and substrate-binding site are consistent with FR171456 binding the substrate-binding pocket thus inhibiting the enzymatic activity. To address this more directly, we tested microsome extracts from the erg26Δ haploid yeast strains expressing the Erg26p wild type, Arg39Lys, Arg307His and Arg315His mutants in increasing doses of FR171456 to assess Erg26p mutant activity (Fig. 3b). Whilst Arg39Lys and Arg307His shift the I50 2-fold, Arg315His confers a 20-fold shift in I50. This highlights the importance of the interaction between Arg315 and the carboxyl group of the substrate/inhibitor as one of the most critical in the Erg26p active site (Fig. 3c).
(§3) Wild-type yeast (FL200) microsomes were prepared as follows.

Erg26p Arg39Lys = assay: In vitro microsomal Erg26p activity assay, mutant; type: biochemical, S. cerevisiae; conditions: microsome extracts
Source text: as §2, §3

Erg26p Arg307His = assay: In vitro microsomal Erg26p activity assay, mutant; type: biochemical, S. cerevisiae; conditions: microsome extracts
Source text: as §2, §3

[4] = tested on: HCV replicon subgenomic genotype 1b; assay: HCV replicon assay in Huh-7 cells (luciferase); conditions: Hepatitis C virus; Huh-7 cell-based assay, 48 h
Method: as §1

[5] = tested on: Candida tropicalis NF2903; assay: Antifungal MIC; type: cell-based
[6] = tested on: sterol pathway intermediates in Huh-7 cells; conditions: 80 nM vs 0 nM FR171456, 48 h
Method: In an attempt to understand which sterol (and other) metabolites are altered by FR171456 a metabolite-profiling experiment was conducted using cells from the original replicon assay exposed to vehicle or four concentrations of FR171456 (Fig. 1c,f, Methods, supplementary Fig. 2). Peaks in the mass spectra with statistically significant differences in intensities between the high (80 nM) and low (0 nM) concentration samples were selected by P values <0.01 (Student's t-test, Bonferroni corrected) and ranked by fold changes. Metabolite identities were assigned to those peaks whose m/z ratio corresponds to the mass of known metabolites (Supplementary Table 1).
Samples of cell pellets containing 8 × 10^6 cells each were lysed and extracted with 300 μl cold methanol (−80 °C) in ultrasonic bath for 10 min and subsequently agitated for 5 min before centrifugation at 10,000 g for 5 min at 4 °C. The supernatants were removed and the remaining pellets were again extracted twice. The supernatants from three extractions were then combined and dried using a SpeedVac (Savant, Fisher Scientific Inc., USA) for 2 h without heating. The residues were resuspended in 200 μl of 80% MeOH and centrifuged to remove any non-dissolvable particles. Finally, 10 μl of the supernatant was then diluted by factor 100 in MeOH/H2O (1:1) for mass spectrometric analysis.
The diluted sample (100 μl) was infused directly into a LTQ-Orbitrap mass spectrometer (Thermo Fisher Scientific, USA) using a HTC PAL autosampler (CTC Analytics, Zwingen, Switzerland) at a flow rate of 18 μl min^–1. A make-up flow, consisting of 70% ethanol and 0.1% formic acid, was delivered through a T-piece at 15 μl min^–1. Electrospray ionization and selected monitoring scan were applied. The total mass range m/z 100–2,000 was segmented into […] scan events with a width of mass window m/z 50 each. Mass resolution at m/z 400 was 100,000.
Each sample was measured in triplicate in positive ionization mode in random order. For quality and instrument stability control, the samples were interspersed with test mix infusion and pooled samples. Blank spectra were also recorded and the observed mass peaks of solvent and impurities were then suppressed in subsequent analysis.
The measured raw spectra were imported with in-house software written in the Igor package (Wavemetrics Inc.) for alignment, peak detection, and integral normalization. The table of exact peak masses and intensities (Supplementary Data, file Supplementary Dataset 1) were exported into the statistical software R, version 2.15.1, for subsequent univariate statistics and pathway analysis. For peak identification, the KEGG database was searched for matches of the observed peaks with endogenous metabolite entries. Metabolite masses with adducts of H^+, Na^+, or K^+ were considered a hit and possible identity of a peak if the difference between its exact monoisotopic mass and the observed mass plus adducts was below 3 p.p.m.

C=C(CCC(C)C1CCC2C1(C)CC(O)C13CC14C(=O)CC(O)C(C)(C(=O)O)C4C(=O)CC23O)C(C)C [FR171456, (1R,2aR,3R,5aR,5bS,7aR,8S,9S,11aS,12aR)-1,5b,9-trihydroxy-2a,8-dimethyl-3-((R)-6-methyl-5-methyleneheptan-2-yl)-7,11-dioxohexadecahydrocyclopenta[a]cyclopropa[e]-phenanthrene-8-carboxylic acid]
MIC (Aspergillus favus NF4902): 64 µg/mL and 144 µM | concentration not affecting proliferation [1]: > 4 µM | IC50 (Erg26p [2]): 2200 ± 500 nM | MIC (Candida albicans NF2103): 32 µg/mL and 72 µM | Ki (Erg26p [3]): 1350 ± 300 nM | I50/Km ratio (Erg26p [3]; for the carboxysterol substrate): ~4 × 10^−3 | shift in I50 versus wild type (Erg26p Arg315His): 20 fold | shift in I50 versus wild type (Erg26p Arg39Lys): 2 fold | shift in I50 versus wild type (Erg26p Arg307His): 2 fold | IC50 [4]: 6.3 nM | MIC [5]: 72 µM and 32 µg/mL | Fold change, m/z 401.3418 (calcidiol, 7α-hydroxycholest-4-en-3-one) [6]: 0.680 | Fold change, m/z 463.3183 (pfaffic acid) [6]: infinite | Fold change, m/z 465.3339 (4α-methylzymosterol-4-carboxylate) [6]: 822.2 | Fold change, m/z 467.3496 (3β-hydroxy-4β-methyl-5α-cholest-7-ene-4α-carboxylate) [6]: 3675.4 | Fold change, m/z 489.3314 (not identified) [6]: infinite | Fold change, m/z 1198.8982 (not identified) [6]: 9665.6
